Measured values published in ChEMBL document CHEMBL1134567, “Prediction of the aroma quality and the threshold values of some pyrazines using artificial neural networks” (J Med Chem, 2001).

Assays:
Format in all cases: functional
[1] = Evaluated for its olfactory detection threshold value and indicates quantitative measure of odour impression
[2] = Evaluated for its olfactory detection threshold value and indicates quantitative measure of odour impression; No threshold value.
[3] = Olfactory detection threshold value and quantitative measure of odour impression; No threshold value.
[4] = Evaluated for its olfactory detection threshold value and indicates quantitative measure of odor impression

Row | SMILES | Log 1/C [1] | other results
1 | COc1nccnc1CC(C)C | 7.47 | –
2 | Cc1nccnc1N(C)C | 2.88 | –
3 | COc1nccnc1CCCC(C)C | 7.51 | –
4 | COc1nccnc1C(C)C | 6.8 | –
5 | CCOc1nccnc1C | – | Log 1/C [2]: No threshold value
6 | C/C=C\CCc1nccnc1OC | 5.52 | –
7 | CCCCCc1nccnc1OCC | 6.38 | –
8 | COc1nc(C)cnc1CC(C)C | 5.84 | –
9 | CCC(C)CCc1cnc(Oc2ccccc2)c(C)n1 (stereo not drawn) | 3.29 | –
10 | Cc1nc(CC(C)C)cnc1Oc1ccccc1 | 2.88 | –
11 | CC(C)c1cnc(Oc2ccccc2)cn1 | 2.79 | –
12 | Cc1cnc(C)c(CCC(C)C)n1 | – | Log 1/C [2]: No threshold value
13 | CCOc1cnccn1 | – | Log 1/C [3]: No threshold value
14 | CCc1nccnc1CC | 5.13 | –
15 | COc1nc(C(C)=O)c(OC)nc1C | – | Log 1/C [2]: No threshold value
16 | CCCC(C)c1nccnc1OC (stereo not drawn) | – | Log 1/C [3]: No threshold value
17 | COc1nc(C)cnc1C | – | Log 1/C [2]: No threshold value
18 | CSc1cnccn1 | – | Log 1/C [3]: No threshold value
19 | CCCC(C)Cc1cnc(SC)c(C)n1 (stereo not drawn) | 4.27 | –
20 | COc1nc(C)cnc1C(C)C | 6.57 | –
21 | COc1cnccn1 | – | Log 1/C [3]: No threshold value
22 | CCCC(C)Cc1nccnc1OC (stereo not drawn) | 7.38 | –
23 | CCCc1nccnc1SC | 5.23 | –
24 | CCCCCCC(C)Cc1nccnc1OC (stereo not drawn) | – | Log 1/C [3]: No threshold value
25 | Cc1ncc(CC(C)C)nc1C | – | Log 1/C [2]: No threshold value

Row | SMILES | Log 1/C [1] | other results
26 | CCc1nccnc1OC | – | Log 1/C [3]: No threshold value
27 | CCCCCCCCc1nccnc1SC | – | Log 1/C [4]: 5.53
28 | CNc1nccnc1C | – | Log 1/C [3]: No threshold value
29 | CCC(C)c1nccnc1OC (stereo not drawn) | 6.62 | –
30 | COc1ncc(C)nc1C(C)(C)O | – | Log 1/C [2]: No threshold value
31 | CCOc1nccnc1CC(C)C | – | Log 1/C [3]: No threshold value
32 | COc1nc(OC)c(C(C)C)nc1C | 2.89 | –
33 | COc1nc(C)cnc1C(C)=O | – | Log 1/C [2]: No threshold value
34 | Cc1cnc(C)c(C)n1 | – | Log 1/C [3]: No threshold value
35 | Cc1nccnc1CC(C)C | 3.06 | –
36 | CCCCCCCCCCc1nccnc1OCC | – | Log 1/C [4]: 3.64
37 | COc1nc(C)c(C)nc1CC(C)C | 2.79 | –
38 | CCSc1ncc(CC(C)CC)nc1C (stereo not drawn) | 4.95 | –
39 | C=CCCCc1nccnc1OC | 6.77 | –
40 | CSc1nccnc1C | – | Log 1/C [3]: No threshold value
41 | CCCCc1nccnc1SCC | 4.69 | –
42 | CCOc1ncc(CC(C)CC)nc1C (stereo not drawn) | 4.54 | –
43 | CCCCCc1nccnc1SCC | 5.32 | –
44 | CCCCCc1cnc(C)c(C)n1 | 3.3 | –
45 | CCC(C)CCc1cnc(OC)c(C)n1 (stereo not drawn) | 5.24 | –
46 | CCc1cnc(C)c(C)n1 | – | Log 1/C [2]: No threshold value
47 | CCOc1ncc(C(C)CC)nc1C (stereo not drawn) | 4.21 | –
48 | CSc1ncc(CC(C)C)nc1C | 4.12 | –
49 | CCSc1nccnc1CC | – | Log 1/C [2]: No threshold value
50 | CCCc1nccnc1OC | 6.1 | –

Row | SMILES | Log 1/C [1] | other results
51 | COc1nc(C(C)C)c(OC)nc1C(C)C | 2.52 | –
52 | CCCCCc1nccnc1OC | 6.95 | –
53 | CCCCc1cnccn1 | 2.53 | –
54 | CCC(C)Cc1cnc(OC)c(C)n1 (stereo not drawn) | 7.29 | –
55 | CCCCCc1nccnc1SC | 6.21 | –
56 | COc1nc(C)c(OC)nc1C | 2.97 | –
57 | CCSc1cnccn1 | – | Log 1/C [3]: No threshold value
58 | CCCCCc1cnccn1 | 4.48 | –
59 | COc1nc(C)cnc1C(C)(C)O | – | Log 1/C [2]: No threshold value
60 | CCOc1ncc(CC(C)C)nc1C | 4.08 | –
61 | CCCCCCCCCCc1nccnc1OC | – | Log 1/C [4]: 3.8
62 | CCCCCCCCc1nccnc1SCC | – | Log 1/C [4]: 5.1
63 | COc1ncc(CC(C)C)nc1C | 6 | –
64 | CCC(C)Cc1nccnc1OC (stereo not drawn) | 7.18 | –
65 | CC(C)Cc1cncc(N(C)C)n1 | 1.55 | –
66 | CCCCCCc1nccnc1OC | 6.44 | –
67 | CCCCCCCCc1nccnc1Sc1ccccc1 | – | Log 1/C [3]: No threshold value
68 | COc1nccnc1C | – | Log 1/C [3]: No threshold value
69 | CSc1cncc(C)n1 | – | Log 1/C [3]: No threshold value
70 | COc1nccnc1CCC(C)C | 7.46 | –
71 | CCSc1nccnc1C | – | Log 1/C [2]: No threshold value
72 | CCOc1ncc(CCC(C)CC)nc1C (stereo not drawn) | 4.87 | –
73 | CCc1cnc(C)cn1 | – | Log 1/C [4]: 2.45
74 | CCCCCCCCc1nccnc1OC | – | Log 1/C [4]: 6.57
75 | Cc1nccnc1C | – | Log 1/C [3]: No threshold value

Row | SMILES | Log 1/C [1] | other results
76 | C/C=C/CCc1nccnc1OC | 6.1 | –
77 | COc1nc(C(C)C)c(OC)nc1C | 3.45 | –
78 | COc1ncc(C)nc1C(C)C | 6.52 | –
79 | COc1cncc(C)n1 | – | Log 1/C [3]: No threshold value
80 | CC(C)Cc1cnccn1 | 2.53 | –
81 | Cc1nc(C)c(C)nc1C | – | Log 1/C [2]: No threshold value
82 | COc1nc(CC(C)C)cnc1CC(C)C | – | Log 1/C [3]: No threshold value
83 | CCCCc1nccnc1OC | 6.52 | –
84 | CCc1ncc(C)nc1C | – | Log 1/C [2]: No threshold value
85 | COc1nccnc1CCCCCCC(C)C | – | Log 1/C [3]: No threshold value
86 | Cc1nccnc1C(C)C | 3.93 | –
87 | CSc1nccnc1C(C)C | 6.55 | –
88 | CCCCCCCc1nccnc1OC | 6.9 | –
89 | Cc1cnc(C)cn1 | – | Log 1/C [3]: No threshold value
90 | CSc1nccnc1CC(C)C | 5.74 | –
91 | CCc1cnccn1 | – | Log 1/C [3]: No threshold value
92 | CCCc1nccnc1C | 3.36 | –
93 | Cc1ncc(C(C)C)nc1C | 3.88 | –
94 | CCCCCCCCc1nccnc1OCC | – | Log 1/C [4]: 5.07
95 | CCc1nc(C)cnc1C | – | Log 1/C [2]: No threshold value
96 | CCCCOc1cnccn1 | – | Log 1/C [3]: No threshold value
97 | CCSc1cnc(CCC(C)CC)cn1 (stereo not drawn) | 3.63 | –
98 | COc1ncc(C)nc1CC(C)C | 4.84 | –
